Measurements from patent US4535075A, “Dithiolane derivative, process for producing the same and use thereof” (Nihon Nohyaku Co., Ltd., priority 1982, dated 1985).

System: liver damage induced by carbon tetrachloride
Assay: Protective (Controlling) effect on liver damage induced by carbon tetrachloride
Assay type: in vivo, mice (dd strain)
Conditions: for p-GPT: CCl4 alone >2,100; for Liver Damage Index: average of 5 mice, CCl4 alone 5.0
Text: Protective (Controlling) Effect on liver damage induced by carbon tetrachloride.
Carbon tetrachloride administration induces centrilobular necrosis of the liver associated with loss of diphosphopyridine nucleotide, hepatic glycogen, coenzyme A and increase in neutral fat. Release of several enzymes from the hepatocytes, and increases of enzyme activities in the plasma are recognized as the result of the damage of the liver.
A suitable means for evaluating the degree induced by carbon tetrachloride or the degree of protection afforded by drugs is to study the plasma glutamic-pyruvic transaminase (p-GPT) activity. […]
After 6 hours, carbon tetrachloride was administered orally 0.05 ml/kg.
Animals were killed 24 hours after carbon tetrachloride administration, and the liver was grossly observed.
The plasma was obtained by centrifugation. Activity of p-GPT were determined by the method of Reitman and Frankel and expressed in Karmen units.
Score for liver damage index was as follows:
1 Each figure indicated average of 5 mice.

[1] = 250 mg/kg p.o., CCl4 0.05 ml/kg after 6 h, 24 h
[2] = 250 mg/kg p.o., CCl4 0.05 ml/kg after 6 h, 24 h, 0 Normal, 2 Slightly recognized, 4 Clearly observable damage, 6 Heavy damage

Compound | p-GPT [1] | Liver Damage Index [2] | Liver Damage Index (administered at 100 mg/kg p.o., scale 0 Normal to 6 Heavy damage) | p-GPT (administered at 100 mg/kg p.o.)
CC(=O)C(C(=O)OCC(C)C)=C1SC2OC(=O)OC2S1 (centres unmarked) [Compound 92] | 29.4 Karmen units | 0.8 | – | –
C=CCOC(=O)C(C(=O)OCC=C)=C1SC2OC(=S)OC2S1 (centres unmarked) [Compound 112, 7-bis(allyloxycarbonyl)methylene-3-thioxo-2,4-dioxa-6,8-dithiabicyclo[3,3,0]octane] | 20.2 Karmen units | 0.6 | – | –
COC(=O)C(C(=O)OC)=C1SC(OC(=O)CCC(=O)O)C(OC(=O)CCC(=O)O)S1 (centres unmarked) [Compound 70] | 121.0 Karmen units | 1.2 | – | –
CC(C)CCOC(=O)C(C#N)=C1SC(O)C(O)S1 (centres unmarked) [Compound 31] | 105 Karmen units | 0.6 | – | –
CCCOC(=O)C(C(=O)OCCC)=C1SC2OC(=O)OC2S1 (centres unmarked) [Compound 74] | 38.8 Karmen units | 0 | – | –
CCCCCCOC(=O)C(C#N)=C1SC(O)C(O)S1 (centres unmarked) [Compound 33] | 93 Karmen units | 0.8 | – | –
CCCOC(=O)C(C(C)=O)=C1SC(OC(=O)C(C)(C)C)C(OC(=O)C(C)(C)C)S1 (centres unmarked) [Compound 63] | 402.6 Karmen units | 1.8 | – | –
C#CCOC(=O)C(C(=O)OCC#C)=C1SC2OC(=O)OC2S1 (centres unmarked) [Compound 85] | 30.3 Karmen units | 0 | – | –
CCOC(=O)C(C(=O)Cc1ccccc1)=C1SC2OC(=O)OC2S1 (centres unmarked) [Compound 106] | 602.2 Karmen units | 1.0 | – | –
CCCOC(=O)C(C#N)=C1SC(O)C(O)S1 (centres unmarked) [Compound 26] | 24 Karmen units | 0.0 | – | –
C#CCOC(=O)C(C(C)=O)=C1SC2OC(=O)OC2S1 (centres unmarked) [Compound 99] | 18.4 Karmen units | 0 | – | –
CC(C)OC(=O)C(C(=O)OC(C)C)=C1SC(OC(=O)CCC(=O)O)C(OC(=O)CCC(=O)O)S1 (centres unmarked) [Compound 69] | – | 2.2 | – | –
CCCCOC(=O)C(C(C)=O)=C1SC2OC(=O)OC2S1 (centres unmarked) [Compound 91] | 27.9 Karmen units | 0.8 | – | –
CCCCOC(=O)C(C#N)=C1SC(O)C(O)S1 (centres unmarked) [Compound 28] | 80 Karmen units | 0.4 | – | –
C=CCOC(=O)C(C(C)=O)=C1SC2OC(=O)OC2S1 (centres unmarked) [Compound 98] | 16.9 Karmen units | 0 | – | –
CCOC(=O)C(C#N)=C1SC(O)C(O)S1 (centres unmarked) [Compound 25] | – | 2.0 | – | –
CCCOC(=O)C(C(=O)OCCC)=C1SC(OC(C)=O)C(OC(C)=O)S1 (centres unmarked) [Compound 59] | 40.9 Karmen units | 0.4 | – | –
CCCCOC(=O)C(C(=O)OCCCC)=C1SC2OC(=O)OC2S1 (centres unmarked) [Compound 76] | 84.8 Karmen units | 0.6 | – | –
CC(=O)C(C(=O)OCCC(C)C)=C1SC2OC(=O)OC2S1 (centres unmarked) [Compound 96] | 15.4 Karmen units | 0 | – | –

Compound | p-GPT [1] | Liver Damage Index [2] | Liver Damage Index (administered at 100 mg/kg p.o., scale 0 Normal to 6 Heavy damage) | p-GPT (administered at 100 mg/kg p.o.)
CCOC(=O)C(C(=O)c1ccccc1)=C1SC(O)C(O)S1 (centres unmarked) [Compound 56] | – | – | 4.0 | > 1418 Karmen units
O=C1OC2SC(=C(C(=O)OC3CCCCC3)C(=O)OC3CCCCC3)SC2O1 (centres unmarked) [Compound 82] | 159.7 Karmen units | 0.4 | – | –
CCOC(=O)C(C(=O)Cc1ccccc1)=C1SC(O)C(O)S1 (centres unmarked) [Compound 55] | 105 Karmen units | 1.8 | – | –
CCOC(=O)C(C(=O)CC(C)C)=C1SC2OC(=O)OC2S1 (centres unmarked) [Compound 104] | 17.6 Karmen units | 0 | – | –
CCOC(=O)C(C(=O)C(C)C)=C1SC2OC(=O)OC2S1 (centres unmarked) [Compound 102] | 48.5 Karmen units | 1.2 | – | –
CC(C)COC(=O)C(C(=O)OC(C)C)=C1SC2OC(=O)OC2S1 (centres unmarked) [Compound 86] | > 436.4 Karmen units | 0.6 | – | –
CCCOC(=O)C(C(=O)OCCC)=C1SC(OC(=O)C(C)(C)C)C(OC(=O)C(C)(C)C)S1 (centres unmarked) [Compound 62] | 223.2 Karmen units | 1.2 | – | –
CC(C)COC(=O)C(C(=O)OCC(C)C)=C1SC2OC(=O)OC2S1 (centres unmarked) [Compound 77] | 21.2 Karmen units | 0.2 | – | –
CCOC(=O)C(C(=O)C(C)C)=C1SC(O)C(O)S1 (centres unmarked) [Compound 51] | 172 Karmen units | 1.6 | – | –
CCCOC(=O)C(C(C)=O)=C1SC2OC(=O)OC2S1 (centres unmarked) [Compound 90] | 23.2 Karmen units | 0.3 | – | –
CC(C)COC(=O)C(C(=O)OCC(C)C)=C1SC2OC(=S)OC2S1 (centres unmarked) [Compound 110] | 554.7 Karmen units | 1.2 | – | –
CCCCCOC(=O)C(C(C)=O)=C1SC2OC(=O)OC2S1 (centres unmarked) [Compound 95] | 28.2 Karmen units | 0.8 | – | –
CCCOC(=O)C(C(=O)OCCC)=C1SC(OC(=O)OCC)C(OC(=O)OCC)S1 (centres unmarked) [Compound 66] | 53.8 Karmen units | 0.2 | – | –
CC(C)COC(=O)C(C#N)=C1SC(O)C(O)S1 (centres unmarked) [Compound 29] | 175 Karmen units | 1.0 | – | –
CC(=O)OC1SC(=C(C(=O)OC(C)C)C(=O)OC(C)C)SC1OC(C)=O (centres unmarked) [Compound 58] | 42.0 Karmen units | 1.0 | – | –
CCOC(=O)C(C(=O)CC)=C1SC(O)C(O)S1 (centres unmarked) [Compound 49] | 23 Karmen units | 0.4 | – | –
CCCOC(=O)C(C(=O)OCCC)=C1SC(OC(=O)N(C)C)C(OC(=O)N(C)C)S1 (centres unmarked) [Compound 64, di-n-propyl 4,5-bis (N,N-dimethylcarbamoyloxy)-1,3-dithiolane-2-ylidenemalonate] | – | 3.4 | – | –
CC(C)OC(=O)C(C#N)=C1SC(O)C(O)S1 (centres unmarked) [Compound 27, isopropyl 4,5-dihydroxy-1,3-dithiolan-2-ylidenecyanoacetate] | 23 Karmen units | 0.2 | – | –
CCCCCCC(=O)C(C(=O)OCC)=C1SC(O)C(O)S1 (centres unmarked) [Compound 54] | 188 Karmen units | 2.6 | – | –

Compound | p-GPT [1] | Liver Damage Index [2] | Liver Damage Index (administered at 100 mg/kg p.o., scale 0 Normal to 6 Heavy damage) | p-GPT (administered at 100 mg/kg p.o.)
C#CCOC(=O)C(C(=O)OCC#C)=C1SC2OC(=S)OC2S1 (centres unmarked) [Compound 113] | 13.3 Karmen units | 0.6 | – | –
CCCC(=O)C(C(=O)OCC)=C1SC2OC(=O)OC2S1 (centres unmarked) [Compound 101] | 20.0 Karmen units | 0.2 | – | –
CCOC(=O)C(C(C)=O)=C1SC2OC(=O)OC2S1 (centres unmarked) [Compound 88] | 211.6 Karmen units | 1.4 | – | –
CCOC(=O)C(C(=O)OCC)=C1SC2OC(=O)OC2S1 (centres unmarked) [Compound 73] | 75.1 Karmen units | 0.8 | – | –
CCC(C)OC(=O)C(C(=O)OC(C)CC)=C1SC(OC(=O)CCC(=O)O)C(OC(=O)CCC(=O)O)S1 (centres unmarked) [Compound 71, di-sec-butyl 4,5-bis(2'-carboxyethylcarbonyloxy)-1,3-dithiolan-2-ylidenemalonate] | – | 2.2 | – | –
CCCOC(=O)C(C(C)=O)=C1SC(OC(C)=O)C(OC(C)=O)S1 (centres unmarked) [Compound 61] | 1260 Karmen units | 0.8 | – | –
CCCCCCC(=O)C(C(=O)OCC)=C1SC2OC(=O)OC2S1 (centres unmarked) [Compound 105] | 107.4 Karmen units | 1.6 | – | –
C=CCOC(=O)C(C(=O)OCC=C)=C1SC2OC(=O)OC2S1 (centres unmarked) [Compound 84] | 13.9 Karmen units | 0 | – | –
CC(C)OC(=O)C(C(=O)OC(C)C)=C1SC2OC(=S)OC2S1 (centres unmarked) [Compound 109] | 139.3 Karmen units | 0.4 | – | –
CCC(C)OC(=O)C(C(=O)OC(C)CC)=C1SC2OC(=O)OC2S1 (centres unmarked) [Compound 78] | 96.0 Karmen units | 0 | – | –
CC(=O)OC1SC(=C(C(=O)OC(C)C)C(=O)OC(C)C)SC1O (centres unmarked) [Compound 57, diisopropyl 4-hydroxy-5-methyl carbonyloxy-1,3-dithiolan-2-ylidenemalonate] | 262.0 Karmen units | 1.0 | – | –
CCCOC(=O)C(C(=O)OCCC)=C1SC2OC(=S)OC2S1 (centres unmarked) [Compound 108] | 31.0 Karmen units | 0 | – | –
COC(=O)C(C(C)=O)=C1SC2OC(=O)OC2S1 (centres unmarked) [Compound 87] | 45.7 Karmen units | 0.6 | – | –
CC(=O)C(C(=O)OC(C)(C)C)=C1SC2OC(=O)OC2S1 (centres unmarked) [Compound 94, 7-(methylcarbonyl-tert-butoxycarbonyl)methylene-3-oxo-2,4-dioxa-6,8-dithiabicyclo[3,3,0]octane] | 26.5 Karmen units | 0.8 | – | –
CCOC(=O)C(C(=O)CC(C)C)=C1SC(O)C(O)S1 (centres unmarked) [Compound 53] | 94 Karmen units | 0.8 | – | –
COC(=O)C(C(=O)OC)=C1SC2OC(=O)OC2S1 (centres unmarked) [Compound 72] | 32.3 Karmen units | 0 | – | –
COC(=O)C(C#N)=C1SC(O)C(O)S1 (centres unmarked) [Compound 24] | 152 Karmen units | 1.0 | – | –
O=C1OC2SC(=C(C(=O)OCc3ccccc3)C(=O)OCc3ccccc3)SC2O1 (centres unmarked) [Compound 83] | 105.5 Karmen units | 1.2 | – | –
CCCCC(=O)C(C(=O)OCC)=C1SC2OC(=O)OC2S1 (centres unmarked) [Compound 103] | 14.7 Karmen units | 0 | – | –
